Columns and labels:
[1] = system: ATZ in the HTO/Z cell line; experiment: Steady state levels of ATZ in the HTO/Z cell line (immunoblot of insoluble and soluble fractions); format: cell-based, human; details: HTO/Z cells
Source text: (§1) Cell Lines The human epidermal HeLa cell line with doxycycline-regulated expression of ATZ (HTO/Z) has been described previously (1). HTO/M and HTO/Saar are HeLa cell lines with doxycycline-regulated expression of wild type AT and the AT Saar variant, respectively (1). A murine embryonic fibroblast cell line (MEF) with targeted disruption of Atg5 (2) was engineered for stable expression of ATZ using the previously described pRc/RSV-ATZ expression plasmid (3). A wild type MEF cell line was also engineered for stable expression of ATZ in the same way to serve as control. For experiments with CBZ, the inducible cell lines were cultured in the absence of doxycycline for at least 4 weeks for maximal expression of AT. The cells were then subcultured into separate monolayers in fresh complete growth medium and incubated for 48 hours in the absence or presence of CBZ or rapamycin (RAP). CBZ or RAP were added to the growth medium. The duration of incubation with CBZ was determined to be optimal at 48 hours based on experiments in which the duration was varied from 12 to 72 hours. Doses of CBZ were based on previous studies of its effects in cell lines (5,6). Doses of RAP were based on previous positive effects on autophagic disposal of polyglutamine-repeat proteins (7). After the incubation cells were homogenized and cell homogenates separated into insoluble and soluble fractions according to our previously established technique (8). Samples of 20 μgs each were subjected to immunoblot analysis for AT, BiP and GAPDH.
(§2) For immunoblot analysis to detect AT, GAPDH or LC3, cells were lysed in 50 mM Tris-HCl, 150 mM NaCl, 1% NP-40, pH 8.0. Protein levels were quantified using the BCA protein assay (Pierce Biotechnology, Rockford, Ill.). 10-50 μg samples were loaded onto 7.5% precast gels. PVDF membranes were blocked in TBS, 0.5% Tween 20 (TBST), 5% milk and then incubated with primary antibody in 5% milk TBST solution. Horseradish peroxidase anti-goat Ig or anti-mouse Ig (Jackson Labs, Bar Harbor, Me.) were used as secondary antibodies in TBST. Blots were visualized with Super Signal West Dura or West Femto from Pierce.

LC3 = LC3 conversion in the HTO/Z cell line by immunoblot; format: cell-based, human; details: with or without lysosomal enzyme inhibitors
Method: For experiments in which proteasomal inhibitors were used, MG132 was used at 30 μM and lactacystin at 10 μM for the last 6 hours of the incubation with CBZ or control. Cells that were incubated with MG132 or lactacystin alone served as control to validate that the proteasome was inhibited. For investigation of LC3 conversion, lysosomal inhibitors (E64D and pepstatin A at 20 μg/ml) were added to the medium for the last 4 hours of the incubation with CBZ or control. […] If the number of separate experiments done in the cell line models is not specifically indicated in the text or figure legend, at least 3 separate experiments were done in each case.
as §2

[2] = system: ATZ in wild-type mouse embryonic fibroblast (MEF) cell line; experiment: ATZ levels in wild-type (Atg5+/+) MEF cell line; format: cell-based, murine
Source text: as §1, with “Doses of RAP were based on previous positive effects on autophagic disposal of polyglutamine-repeat proteins (7). After the incubation cells were homogenized and cell homogenates separated into insoluble and soluble fractions according to our previously established technique (8). Samples of 20 μgs each were subjected to immunoblot analysis for AT, BiP and GAPDH.” left out
(§3) For immunoblot analysis to detect AT, GAPDH or LC3, cells were lysed in 50 mM Tris-HCl, 150 mM NaCl, 1% NP-40, pH 8.0. Protein levels were quantified using the BCA protein assay (Pierce Biotechnology, Rockford, Ill.). […]

[3] = system: AT Saar in the HTO/Saar cell line; experiment: Levels of AT Saar variant in the HTO/Saar cell line; format: cell-based, human; details: FIG. 3D
Source text: as §1, with “Doses of RAP were based on previous positive effects on autophagic disposal of polyglutamine-repeat proteins (7). After the incubation cells were homogenized and cell homogenates separated into insoluble and soluble fractions according to our previously established technique (8). Samples of 20 μgs each were subjected to immunoblot analysis for AT, BiP and GAPDH.” left out
as §3

PiZ mice = experiment: Hepatic fibrosis in PiZ mice (Sirius Red, hepatic hydroxyproline); format: in vivo, mouse
Source text: Transgenic Mice PiZ mice that have been bred into the C57/BL6 background have been described previously (1). For the second and third series of experiments with CBZ we used PiZ mice that were re-derived onto the FVB/N background for a move into a new animal facility. The transgene that was used to generate the PiZ mouse is a genomic fragment of DNA that contains the coding regions of the ATZ gene together with introns and ˜2 kilobases of upstream and downstream flanking regions (10). […] In this perspective it is not an exact phenocopy of the classical form of AT deficiency. In particular it cannot be a model for the loss-of-function mechanisms associated with the classical form of AT deficiency. It is known to have abundant expression of ATZ in hepatocytes and other cell types that express ATZ in humans (11). In the liver there are abundant ATZ-containing intrahepatocytic globules and inflammation that is characteristic of what is seen in the human liver (11,12). […] Taken together, these observations indicate that the PiZ mouse is an appropriate model for the gain-of-toxic function mechanism that is responsible for liver damage in the classical form of AT deficiency. Indeed, the fact that these mice are endowed with endogenous AT function and therein normal levels of AT in the serum and body fluids make them an even more ‘pure’ model for liver damage by gain-of-toxic function. PiZ×GFP-LC3 mice, which generated green fluorescent autophagosomes, have been described previously (2). PiZ×IKKβ.hep were generated by mating of PiZ to IKKβ.hep, which has conditional hepatocyte-specific disruption of NF.B activation (M. Karin, 17). There is increased injury in the liver of these mice as evidenced by the hepatic hydroxyproline content, 153.3% of that in the PiZ mouse (FIG. 7).
Histology Sections of liver tissue were stained with hematoxylin and eosin, PAS, PAS after diastase treatment, TUNEL, PCNA, Ki67 and Sirius Red using standard techniques (18). Previous methods for staining with antibody to smooth muscle actin were used (19). Each was examined by the pathologist (GM) who was completely blinded to the experimental protocol. Sections of liver tissue were also stained with goat anti-human AT followed by donkey anti-goat Cy3 to detect AT-containing intracellular globules. Finally sections of liver tissue were stained with anti-GFP to optimize the detection of green fluorescent autophagosomes. The number of inflammatory nodules, AT-containing globules and autophagosomes were each quantified blindly by counting cells in 6 microscopic fields of 10 different sections for each liver. The number of nuclei, as determined by Hoechst staining, was used to exclude the possibility that different numbers of cells were counted in liver sections from mice treated with CBZ as compared to controls. Hepatic hydroxyproline concentration was determined by a well-established protocol (20,21).
Therapeutic regimens For the initial series of experiments in mice in vivo, the dose of 250 mg/kg/day for CBZ was based on previous studies of its biological effects in mice (22,23). […] CBZ was administered in DMSO by gavage once per day. Control mice were given an equivalent volume of DMSO by gavage. In a second series of experiments, doses of 200, 100 and 50 mg/kg/day of CBZ were administered for 6 weeks. The dose and route of administration of RAP, 2 mg/kg/day by intraperitoneal injection for 2 weeks, was based on previous studies that have shown activation of hepatic autophagy (24).

PiZ×IKKbDhep mouse = experiment: Hepatic hydroxyproline in PiZ×IKKbDhep mouse model; format: in vivo; details: FIG. 7
Source text: Transgenic Mice PiZ mice that have been bred into the C57/BL6 background have been described previously (1). For the second and third series of experiments with CBZ we used PiZ mice that were re-derived onto the FVB/N background for a move into a new animal facility. The transgene that was used to generate the PiZ mouse is a genomic fragment of DNA that contains the coding regions of the ATZ gene together with introns and ˜2 kilobases of upstream and downstream flanking regions (10). […] In this perspective it is not an exact phenocopy of the classical form of AT deficiency. In particular it cannot be a model for the loss-of-function mechanisms associated with the classical form of AT deficiency. […]
Histology Sections of liver tissue were stained with hematoxylin and eosin, PAS, PAS after diastase treatment, TUNEL, PCNA, Ki67 and Sirius Red using standard techniques (18). […] The number of inflammatory nodules, AT-containing globules and autophagosomes were each quantified blindly by counting cells in 6 microscopic fields of 10 different sections for each liver. The number of nuclei, as determined by Hoechst staining, was used to exclude the possibility that different numbers of cells were counted in liver sections from mice treated with CBZ as compared to controls. Hepatic hydroxyproline concentration was determined by a well-established protocol (20,21).

[4] = 48 hours incubation, immunoblot

NC(=O)N1c2ccccc2C=Cc2ccccc21 [CBZ, 5H-dibenz [b,f]azepine-5-carboxamide]
minimal effective dose on ATZ levels [1]: 3 µM
steady-state levels of ATZ, insoluble fraction [1, 4]: marked decrease
steady-state levels of ATZ, soluble fraction [1, 4]: marked decrease
LC3-II to LC3-I ratio (LC3): increased in a dose-dependent manner
levels of insoluble ATZ ([2]; wild-type MEF cell line): decrease
levels of soluble ATZ ([2]; wild-type MEF cells): decrease
levels of AT Saar (soluble fraction) [3]: degraded by CBZ in a manner almost identical to that of ATZ
hepatic hydroxyproline concentrations (PiZ mice; 200 mg kg-1 day-1 for 6 weeks): decreased
hepatic fibrosis (Sirius red) (PiZ mice; 250 mg kg-1 for 2 weeks, FIG. 4E): marked decrease
decrease of hepatic hydroxyproline content (PiZ mice; PiZ mice vs untreated PiZ, FIG. 7): 46.7%
lowest effective dose (hepatic hydroxyproline) (PiZ mice; PiZ mice, 6 weeks): 200 mg/kg/day
hepatic hydroxyproline concentration (PiZ mice; PiZ mice, mean±SD, control 2.27±1.02, P=0.0074): 1.21 ± 0.7 µg/mg dry weight
hepatic hydroxyproline concentration (PiZ×IKKbDhep mouse): decrease

— patent US9511074B2, “Methods of treating disorders associated with protein polymerization” (UNIVERSITY OF PITTSBURGH—OF THE COMMONWEALTH SYSTEM OF …, priority 2009, dated 2016)
